Experimental data: US12065443B2, “Compounds and pharmaceutical compositions thereof for the treatment of diseases” (priority 2017, dated 2024)
Like-named read-outs stand apart in the source and are kept apart here.

How the values were obtained:
SIK2 [1] = biological target: T1, SIK2 (Homo sapiens, UniProt Q9H0K1); test: biochemical; details: ADP-Glo SIK kinase assay
T1 construct: purchased ThermoFisher Scientific PV4792
Experimental: (§1) The ADP-Glo™ kinase assay is a luminescent technology assay which measures the ADP formed from a kinase reaction. […] In a second step the kinase reactions are terminated and all the remaining ATP is depleted. In a final step the ADP is converted into ATP and this newly synthesized ATP is measured by using a luciferase/luciferin reaction. The generated light is measured using an Envision plate reader, wherein the luminescent signal obtained positively correlates with the kinase activity.
(§2) 1% DMSO and 10 μM staurosporine final concentrations are used as negative and positive controls.
(§3) 2 μL enzyme-substrate mixture is added to the assay plates.
(§4) The reaction is started by adding 2 μL diluted ATP on the assay plates. Plates are centrifuged for a few seconds at 1000 rpm and gently shaken for 2 min followed by an incubation at RT for 120 min.
(§5) The reactions are stopped and the unconsumed ATP is depleted by adding 5 μL ADP-Glo Reagent (Promega, Cat #V912B) to the reaction. The plates are centrifuged for a few seconds at 1000 rpm and incubated at RT for 40 min (ATP depletion).
(§6) The ADP is converted to ATP and luciferase and luciferin is introduced to detect ATP by adding 10 μL Kinase Detection Reagent (Promega, Cat #V913B+V914B) to the reaction. The plates are centrifuged for a few seconds at 1000 rpm and incubated at RT for 30 min (ADP detection).
(§7) Luminescence is measured on an Envision plate reader (PerkinElmer Inc.).

SIK1 [2] = biological target: T2, SIK1 (Homo sapiens, UniProt P57059); test: biochemical; details: ADP-Glo SIK kinase assay
T2 construct: purchased Carna Biosciences 02-131
Experimental: as §1, §2, §3, §4, §5, §6, §7

SIK3 [3] = biological target: T3, SIK3 (Homo sapiens, UniProt Q9Y2K2); test: biochemical; details: ADP-Glo SIK kinase assay
T3 construct: purchased SignalChem S12-11G-100
Experimental: as §1, §2, §3, §4, §5, §6, §7

SIK2 [4] = biological target: T1, SIK2; test: biochemical; details: 33P radioactive SIK kinase assay, AMARA peptide, 10 μM ATP
In short: (§8)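 Radiometric assay: SIK1, SIK2 or SIK3 phosphorylates AMARA peptide using unlabelled plus [^33P]-γ-ATP, reaction started by ATP addition. Stopped with 150 mM phosphoric acid, filter-harvested and washed; incorporated ^33P counted by scintillation. Controls: 1% DMSO and 10 μM staurosporine final.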

SIK1 [5] = biological target: T2, SIK1; test: biochemical; details: 33P radioactive SIK kinase assay, AMARA peptide, 10 μM ATP; read-out: SIK1 IC50
In short: as §8

SIK3 [6] = biological target: T3, SIK3; test: biochemical
In short: as §8

[7] = tested on: LPS triggered IL-10 secretion in monocyte-derived macrophages (MdM); test: MdM assay: LPS-triggered IL-10 (ELISA); assay type: cell-based, human; details: maximal fold change vs LPS only, median across assays
Experimental: This assay evaluates illustrative compounds of the invention for their inhibition of LPS-induced TNFα and LPS triggered IL-10 secretion in monocyte-derived macrophages.
PBMCs are isolated from human blood samples (buffycoats). The buffy coat is aseptically transferred into a 50 mL Falcon tube, and diluted 1/2 in PBS. Falcon tubes are filled with 20 mL Lymphoprep™, on top of which 25 mL of the buffy coat is carefully added, tubes are centrifuged for 35 min at 400 g in temperature controlled centrifuge, without brake, at 25° C. PBMCs are aspirated from the white interface layer between sample and Lymphoprep™. PBMCs are washed five times in PBS.
PBMCs are centrifuged at 300×g for 10 min and resuspended at a density of 1.0E07 cells/80 μL Miltenyi buffer (PBS, pH 7.4, 1% FBS, 2 mM EDTA).
Starting from this point of the protocol all steps are performed on ice. 20 μL of CD14+ micro-beads are added per 1.0E07 cells, the tube is mixed and incubated for 15 min in the fridge at 4° C. Cell suspension volume is adjusted to total volume of 100 mL using Miltenyi buffer, mixed gently and subsequently centrifuged for 10 min at 300× g. Supernantant is discarded and cell pellet is resuspended in 12 mL of Miltenyi buffer.
Four LS columns are placed in the MACS Separator (magnet) from Miltenyi Biotec, and are prewet by rinsing with 3 mL of MACS buffer per column. Three mL of cell suspension is added onto the column (max 1*10^8 of labelled cells/column), and columns are subsequently washed 3 times with 3 mL of Miltenyi buffer.
The columns are removed from the magnets, and 5 mL of Miltenyi buffer are added to the column to flush out the CD14+ fraction by pushing the plunger into the column. The flushed fractions are collected in a fresh 50 mL Falcon and volume is adjusted to 30 mL using Miltenyi buffer, cells are centrifuged for 10 min at 300× g. The obtained cell pellet is resuspended in 10 mL RPMI w/o FBS, and cell density is determined using a hematologic analyser (Sysmex XS-500i).
On day 10, MdMs are triggered and compound is added.
A compound dilution plate is made in 100% DMSO by 3-fold dilution of 10 mM stock solution. An intermediate dilution plate (10× final concentration) is made by diluting the compound dilution plate 50-fold in RPMI medium.
Medium is carefully removed from cell plates using multichannel pipette, and replaced by 80 μL fresh medium. 10 μL of the 10× final concentration compound is added to the cells and incubated for 1 hour at 37° C. before addition of trigger. No trigger conditions/trigger conditions are spiked with equal final DMSO concentrations of 0.2% DMSO. 10 μL of 10×LPS (final conc. 200 ng/mL) solution are added to all wells except for the ‘no trigger wells’ where 10 μL medium is added. Supernatant is collected after 2 h (IL-10 determination) and after 20 h (TNFα determination) of LPS triggering.
Plates are washed three times with PBST, where after 100 μL of Strep-HRP conjugate (0.5 μg/mL final concentration diluted in dilution buffer) is added. Plates are incubated in the dark, at 37° C. for 30 min. Plates are washed three times with PBST. […] 100 μL of substrate solution is added to each well and incubated until brilliant blue color develops. The reaction is stopped by adding 50 μL of 1 M H2SO4, after which absorbance is measured at 450 nm on the SpectraMax i3, Molecular Devices.
To quantify these inductions fold changes (FC) compared to ‘LPS only’ are calculated for each concentration tested and the maximal FC is calculated (IL-10 FCmax):
[formula] wherein ABS=Absorbance measured at 450 nm.
The median maximal FC for test compounds across two or more assays is reported (IL-10FCmax median).

[8] = tested on: LPS-induced TNFα secretion in monocyte-derived macrophages (MdM); test: MdM assay: LPS-triggered TNFα (ELISA); assay type: cell-based, human; details: Homo sapiens, Macrophage, LPS-triggered TNFα inhibition
In short: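 Human CD14+ monocytes isolated from buffy-coat PBMCs by magnetic beads, differentiated to macrophages; on day 10 compound preincubated 1 h at 37 °C, then LPS 200 ng/mL added (0.2% DMSO). Supernatant taken after 20 h; TNFα quantified by sandwich ELISA against standard curve.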

T3 sequence (Q9Y2K2 whole entry): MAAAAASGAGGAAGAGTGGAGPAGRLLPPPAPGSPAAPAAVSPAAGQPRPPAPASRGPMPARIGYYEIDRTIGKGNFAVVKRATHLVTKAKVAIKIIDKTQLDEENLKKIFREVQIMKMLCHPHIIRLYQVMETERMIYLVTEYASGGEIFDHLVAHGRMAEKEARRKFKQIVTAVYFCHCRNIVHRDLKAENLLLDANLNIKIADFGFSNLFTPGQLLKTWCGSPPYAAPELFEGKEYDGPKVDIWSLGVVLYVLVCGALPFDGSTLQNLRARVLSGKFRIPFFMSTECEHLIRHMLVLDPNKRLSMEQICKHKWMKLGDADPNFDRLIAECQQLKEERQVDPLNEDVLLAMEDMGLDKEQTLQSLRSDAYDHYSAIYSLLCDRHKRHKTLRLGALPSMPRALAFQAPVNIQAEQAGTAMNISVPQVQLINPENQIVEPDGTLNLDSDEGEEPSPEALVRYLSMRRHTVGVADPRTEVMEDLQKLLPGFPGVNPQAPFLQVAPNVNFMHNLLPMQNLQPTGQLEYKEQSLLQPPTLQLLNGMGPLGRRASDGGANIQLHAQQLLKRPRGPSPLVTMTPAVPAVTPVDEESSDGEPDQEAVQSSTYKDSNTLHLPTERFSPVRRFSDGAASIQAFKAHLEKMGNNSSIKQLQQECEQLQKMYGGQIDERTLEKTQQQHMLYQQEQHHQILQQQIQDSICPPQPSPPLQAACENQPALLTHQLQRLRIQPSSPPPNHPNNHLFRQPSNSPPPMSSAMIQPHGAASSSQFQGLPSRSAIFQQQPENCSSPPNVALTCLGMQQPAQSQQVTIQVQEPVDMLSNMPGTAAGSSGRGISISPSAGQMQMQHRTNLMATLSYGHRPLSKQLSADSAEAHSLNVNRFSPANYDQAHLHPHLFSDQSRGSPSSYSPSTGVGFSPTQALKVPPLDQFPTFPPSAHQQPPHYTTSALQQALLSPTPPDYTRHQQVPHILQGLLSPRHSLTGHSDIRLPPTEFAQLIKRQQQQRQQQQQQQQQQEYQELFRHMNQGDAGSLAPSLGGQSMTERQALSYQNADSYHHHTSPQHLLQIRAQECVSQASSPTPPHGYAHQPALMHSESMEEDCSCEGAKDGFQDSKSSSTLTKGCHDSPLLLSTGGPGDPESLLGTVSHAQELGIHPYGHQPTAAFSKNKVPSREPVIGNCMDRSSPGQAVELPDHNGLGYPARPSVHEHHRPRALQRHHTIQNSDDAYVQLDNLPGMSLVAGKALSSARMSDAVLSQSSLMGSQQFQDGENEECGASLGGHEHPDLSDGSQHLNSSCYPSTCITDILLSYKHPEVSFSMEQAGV
T1 sequence (Q9H0K1 whole entry): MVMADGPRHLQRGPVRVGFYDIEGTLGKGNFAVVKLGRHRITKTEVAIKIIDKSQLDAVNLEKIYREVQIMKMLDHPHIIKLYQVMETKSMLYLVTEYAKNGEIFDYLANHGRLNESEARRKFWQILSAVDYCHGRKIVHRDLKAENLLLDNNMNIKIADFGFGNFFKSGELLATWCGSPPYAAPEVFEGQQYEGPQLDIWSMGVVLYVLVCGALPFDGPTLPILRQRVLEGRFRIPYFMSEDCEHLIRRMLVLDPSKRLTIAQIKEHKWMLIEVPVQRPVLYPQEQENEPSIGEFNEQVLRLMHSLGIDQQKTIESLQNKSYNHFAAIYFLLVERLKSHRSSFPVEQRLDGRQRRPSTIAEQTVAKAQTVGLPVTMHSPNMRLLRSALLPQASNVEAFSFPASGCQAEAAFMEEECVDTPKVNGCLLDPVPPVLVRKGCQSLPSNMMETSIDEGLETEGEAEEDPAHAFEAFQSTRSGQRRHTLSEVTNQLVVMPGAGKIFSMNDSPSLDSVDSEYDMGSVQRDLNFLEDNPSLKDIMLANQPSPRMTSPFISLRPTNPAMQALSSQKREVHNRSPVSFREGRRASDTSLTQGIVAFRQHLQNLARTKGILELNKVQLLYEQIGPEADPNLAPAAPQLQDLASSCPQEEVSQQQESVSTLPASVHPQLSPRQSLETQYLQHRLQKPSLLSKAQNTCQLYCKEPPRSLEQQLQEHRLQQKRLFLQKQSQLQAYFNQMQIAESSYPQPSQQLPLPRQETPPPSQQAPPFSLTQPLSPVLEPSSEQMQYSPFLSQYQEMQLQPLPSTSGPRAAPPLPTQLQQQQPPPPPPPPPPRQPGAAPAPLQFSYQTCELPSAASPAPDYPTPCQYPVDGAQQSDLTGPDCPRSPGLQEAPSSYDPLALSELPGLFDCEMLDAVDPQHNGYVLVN
T2 sequence (P57059 whole entry): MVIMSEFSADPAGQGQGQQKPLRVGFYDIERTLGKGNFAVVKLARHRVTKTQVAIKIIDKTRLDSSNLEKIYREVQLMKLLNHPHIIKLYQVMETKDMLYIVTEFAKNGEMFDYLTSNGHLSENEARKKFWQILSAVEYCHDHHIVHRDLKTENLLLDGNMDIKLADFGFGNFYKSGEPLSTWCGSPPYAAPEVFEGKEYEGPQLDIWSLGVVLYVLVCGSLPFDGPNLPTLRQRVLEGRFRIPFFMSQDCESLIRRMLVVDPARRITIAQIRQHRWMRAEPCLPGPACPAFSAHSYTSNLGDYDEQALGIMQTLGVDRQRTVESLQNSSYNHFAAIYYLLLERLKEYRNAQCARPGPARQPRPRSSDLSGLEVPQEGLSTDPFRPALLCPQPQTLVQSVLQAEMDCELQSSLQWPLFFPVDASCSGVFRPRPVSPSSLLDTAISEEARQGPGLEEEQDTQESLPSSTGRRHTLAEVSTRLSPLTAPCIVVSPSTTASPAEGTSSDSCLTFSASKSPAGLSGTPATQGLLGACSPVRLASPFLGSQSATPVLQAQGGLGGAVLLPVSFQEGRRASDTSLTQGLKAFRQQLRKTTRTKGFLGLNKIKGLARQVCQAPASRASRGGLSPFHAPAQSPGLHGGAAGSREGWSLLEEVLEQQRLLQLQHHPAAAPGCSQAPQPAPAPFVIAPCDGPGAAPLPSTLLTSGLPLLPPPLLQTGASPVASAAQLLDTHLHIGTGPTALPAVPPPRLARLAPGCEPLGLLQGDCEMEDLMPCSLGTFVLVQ

Row | SMILES | IC50 (SIK2 [1]) [nM] | IC50 (SIK1 [2]) [nM] | IC50 (SIK3 [3]) [nM] | IC50 (SIK2 [4]) [nM] | IC50 (SIK1 [5]) [nM] | IC50 (SIK3 [6]) [nM] | IL-10 FCmax median [7] | EC50 [8] [nM]
1 | COc1cc(-c2cnc3cc(-c4cnn(C)c4)ccn23)cc(NC(C)C)c1C(=O)NC1CC1 [compound 277, N-cyclopropyl-2-(isopropylamino)-6-methoxy-4-[7-(1-methylpyrazol-4-yl)imidazo[1,2-a]pyridin-3-yl]benzamide] | 0.01 to 10 | 0.01 to 10 | 0.01 to 10 | – | – | – | – | –
2 | COc1cc(-c2cnc3cc(-c4ccc(C)nn4)ccn23)cc(OC)c1C(=O)NCC(F)(F)F [compound 269, 2,6-dimethoxy-4-[7-(6-methylpyridazin-3-yl)imidazo[1,2-a]pyridin-3-yl]-N-(2,2,2-trifluoroethyl)benzamide] | 0.01 to 10 | 10 to 100 | 0.01 to 10 | – | – | – | – | –
3 | CCNC(=O)c1c(OC)cc(-n2cnc3cc(-c4cnn(CCN5CCOCC5)c4)ccc32)cc1OC [compound 4, N-ethyl-2,6-dimethoxy-4-[5-[1-(2-morpholinoethyl)pyrazol-4-yl]benzimidazol-1-yl]benzamide] | – | – | – | 10 to 100 | 10 to 100 | 10 to 100 | ++ (>1.5-4.5) | 1000 to 5000
4 | COc1cc(-c2cnc3cc(-c4cnn(C)c4)ccn23)cc(OC)c1C(=O)N1CC(C#N)C1 [compound 209, 1-[2,6-dimethoxy-4-[7-(1-methylpyrazol-4-yl)imidazo[1,2-a]pyridin-3-yl]benzoyl)azetidine-3-carbonitrile] | – | – | – | 0.01 to 10 | 0.01 to 10 | 0.01 to 10 | ++ (>1.5-4.5) | 100 to 1000
5 | CCNC(=O)c1c(OC)cc(-n2cnc3cc(-c4ccc(N5CCOCC5)nc4)ccc32)cc1OC [compound 3, N-ethyl-2,6-dimethoxy-4-[5-(6-morpholino-3-pyridyl)benzimidazol-1-yl]benzamide] | – | – | – | 10 to 100 | 10 to 100 | 10 to 100 | ++ (>1.5-4.5) | 100 to 1000
6 | COc1cc(-n2cnc3cc(-c4cnn(C)c4)ccc32)cc(OC)c1C(=O)N1CC(O)(C(F)(F)F)C1 [compound 219, [2,6-dimethoxy-4-[5-(1-methylpyrazol-4-yl)benzimidazol-1-yl]phenyl]-[3-hydroxy-3-(trifluoromethyl)azetidin-1-yl]methanone] | – | – | – | 0.01 to 10 | 0.01 to 10 | 0.01 to 10 | ++ (>1.5-4.5) | 100 to 1000
7 | COc1cc(-c2cnc3cc(-c4cc(C)no4)ccn23)cc(OC)c1C(=O)N[C@H](C)C(F)(F)F [compound 223, 2,6-dimethoxy-4-[7-(3-methylisoxazol-5-yl)imidazo[1,2-a]pyridin-3-yl]-N-[(1R)-2,2,2-trifluoro-1-methyl-ethyl]benzamide] | – | – | – | 10 to 100 | 10 to 100 | 10 to 100 | +++ (>4.5) | 100 to 1000
8 | CCn1cc(-c2ccc3c(c2)ncn3-c2cc(OC)c(C(=O)NCCF)c(OC)c2)cn1 [compound 10, 4-[5-(1-ethylpyrazol-4-yl)benzimidazol-1-yl]-N-(2-fluoroethyl)-2,6-dimethoxy-benzamide] | – | – | – | 0.01 to 10 | 10 to 100 | 0.01 to 10 | ++ (>1.5-4.5) | 100 to 1000
9 | COc1cc(-n2cnc3cc(-c4cnn(C)c4)ccc32)cc(OC)c1C(=O)N[C@@H]1C[C@@H]1C(F)F [compound 158] | – | – | – | 0.01 to 10 | 10 to 100 | 0.01 to 10 | ++ (>1.5-4.5) | 100 to 1000
10 | COc1cc(-c2cnc3cc(-c4ccc(C#N)nc4)ccn23)cc(OC)c1C(=O)NCC(F)(F)F [compound 240, 4-[7-(6-cyano-3-pyridyl)imidazo[1,2-a]pyridin-3-yl]-2,6-dimethoxy-N-(2,2,2-trifluoroethyl)benzamide] | – | – | – | 10 to 100 | 100 to 500 | 0.01 to 10 | + (≤1.5) | 100 to 1000
11 | COc1cc(-n2cnc3cc(-c4cnoc4)ccc32)cc(OC)c1C(=O)NCC(F)(F)F [Cpd 51, 4-(5-isoxazol-4-ylbenzimidazol-1-yl)-2,6-dimethoxy-N-(2,2,2-trifluoroethyl)benzamide] | – | – | – | 10 to 100 | 10 to 100 | 10 to 100 | ++ (>1.5-4.5) | 100 to 1000
12 | COc1cc(-n2cnc3cc(-c4cnn(CCO)c4)ccc32)cc(OC)c1C(=O)NCC(F)(F)F [compound 33, 4-[5-[1-(2-hydroxyethyl)pyrazol-4-yl]benzimidazol-1-yl]-2,6-dimethoxy-N-(2,2,2-trifluoroethyl)benzamide] | – | – | – | 0.01 to 10 | 0.01 to 10 | 0.01 to 10 | ++ (>1.5-4.5) | > 5000
13 | COc1cc(-c2cnc3cc(-c4cnn(CC(=O)O)c4)ccn23)cc(OC)c1C(=O)NCC(F)(F)F [Cpd 228, 2-[4-[3-[3,5-dimethoxy-4-(2,2,2-trifluoroethyl-carbamoyl)phenyl]imidazo[1,2-a]pyridin-7-yl]pyrazol-1-yl]acetic acid] | – | – | – | 0.01 to 10 | 0.01 to 10 | 0.01 to 10 | ++ (>1.5-4.5) | > 5000
14 | COc1ccc(-c2ccn3c(-c4cc(OC)c(C(=O)NCC(F)(F)F)c(OC)c4)cnc3c2)cn1 [compound 239, 2,6-dimethoxy-4-[7-(6-mcthoxy-3-pyridyl)imidazo[1,2--a]pyridin-3-yl]-N-(2,2,2-trifluoroethyl)benzamide] | – | – | – | 0.01 to 10 | 10 to 100 | 0.01 to 10 | ++ (>1.5-4.5) | 100 to 1000
